{"source": "patent US20070066512A1", "about": "“Methods and compositions using immunomodulatory compounds for the treatment of disorders associated with low plasma leptin levels” (priority 2005, published 2007)", "key": {"[1]": {"test_system": "adiponectin secretion in adipocytes", "assay": "Adiponectin secretion of adipocytes (quantikine human adiponectin immunoassay)", "type": "cell-based", "conditions": "adipocytes differentiated in presence of compound", "method": "(§1) Human Mesenchymal Stem Cell (MSC) and adipocyte differentiation media were obtained from Cambrex (Walkersville, Md.). MSCs were seeded in 24 well plates at 40,000 cells per well in MSC Basic Medium (MSCBM), supplemented with 10% serum and expanded for 7 days. At 100% of confluence, three cycles of induction/maintenance stimulated adipogetic differentiation. Each cycle consisted feeding MSCs with Adipogenic Induction Medium (AIM) for 3 days, followed by 1 day of culture in Adipogenic Maintenance Medium (AMM). AIM and AMM contained 10% serum, Pen-Sterep and L-Glu, supplemented with insulin, dexamethasone, indomethacin and IBMX, or insulin only. After 3 complete cycles of induction/maintenance, MSCs are cultured for 3 more days in AMM and analyzed.\nTo study the effects of immunomodulatory compounds on adipocyte differentiation, MSCs were differentiated in the presence of DMSO or varying concentrations of an immunomodulatory compound. […]\nLeptin and adiponectin were measured using the quantikine human leptin and human adiponectin immunoassay kits (R&D Systems, Minneapolis, Minn.). To measure leptin secretion, 100 μl of medium was collected from the cell plates, diluted 2 or 5 times depending on the collecting time during the differentiation process, and analyzed following the manufacturer's protocols. […] For adiponectin secretion, 50 μl of medium was collected and directly analyzed."}, "MSCs [2]": {"test_system": "MSCs", "assay": "MSC viability (XTT assay)", "type": "cell-based, Human", "conditions": "MSCs treated for 2 days vs DMSO", "method": "(§2) MSC viability was assayed using cell proliferation kit II (XTT) (Roche, Indianapolis, Ind.). MSC proliferation was assayed using 5-bromo-2′-deoxy-uridine labeling and detection kit III (BrdU) (Roche, Indianapolis, Ind.). MSCs have been seeded in 96 well plates and expanded for 2 days in presence of DMSO or varying concentrations of an immunomodulatory compound. XTT and BrdU were added to the cells for 20 hours. The viability and proliferation of MSCs were assayed following manufacturer's instructions."}, "leptin mRNA": {"test_system": "leptin mRNA", "assay": "Northern blot of leptin mRNA in MSC-derived adipocytes", "type": "cell-based, Human", "conditions": "adipocytes treated with compound vs DMSO; GAPDH control unchanged", "method": "as §1\n(§3) To study the effects of immunomodulatory compounds on adipocyte differentiation, MSCs were differentiated in the presence of DMSO or varying concentrations of an immunomodulatory compound. DMSO and immunomodulatory compounds were added to the medium during the differentiation and maintenance steps. Phenotypic characterization of the cells for adipocyte markers, such as triglyceride content and adipokine secretion, was performed.\n(§4) RNAs from MSC-derived adipocytes were isolated with RNeasy lipid tissue kit (Qiagen, Valencia, Calif.). […]"}, "MSCs [3]": {"test_system": "MSCs", "assay": "MSC proliferation (BrdU incorporation assay)", "type": "cell-based, Human", "conditions": "MSCs treated for 2 days vs DMSO", "method": "as §2"}, "adiponectin mRNA": {"test_system": "adiponectin mRNA", "assay": "Northern blot of adiponectin mRNA in MSC-derived adipocytes", "type": "cell-based, Human", "conditions": "adipocytes treated with compound vs DMSO; GAPDH control unchanged", "method": "as §1, §3, §4"}, "[4]": {"test_system": "adipocytes differentiated from Human Mesenchymal Stem Cell (MSC)", "assay": "Triglyceride accumulation in MSC-derived adipocytes (microscopy, Oil Red O staining)", "type": "cell-based", "conditions": "for triglyceride accumulation quantified by Oil Red O staining (FIG. 2B): cells cultured with compound vs DMSO", "method": "as §1, §3\nFat content in adipocyte was quantified by Oil Red O staining. Cells were washed with PBS and fixed with 3.7% formaldehyde for 15 minutes. Lipid vacuoles were stained with 0.5% Oil Red O in 60% isopropanol for 30 minutes at 37° C. Cells were then washed three times with water and Oil Red O content was dissolved into 100% propanol. The optical density of the solution was measured at 510 nm."}, "[5]": {"test_system": "leptin secretion in adipocytes", "assay": "Leptin secretion of adipocytes (quantikine human leptin immunoassay)", "type": "cell-based", "conditions": "for concentration giving maximum of dose dependent leptin secretion response: adipocytes differentiated in presence of compound; for dexamethasone induced leptin secretion (FIG. 3C): dexamethasone added to the cells for 15 hours at the end of differentiation", "method": "as §1, §3\nLeptin and adiponectin were measured using the quantikine human leptin and human adiponectin immunoassay kits (R&D Systems, Minneapolis, Minn.). To measure leptin secretion, 100 μl of medium was collected from the cell plates, diluted 2 or 5 times depending on the collecting time during the differentiation process, and analyzed following the manufacturer's protocols. Results were corrected for the dilution factor. For adiponectin secretion, 50 μl of medium was collected and directly analyzed."}, "[6]": {"conditions": "cited from earlier work; for interconversion of polymorphic form: aqueous solvent systems or higher relative humidities; for hygroscopicity of polymorphic form: crystalline form of 3-(4-amino-1-oxo-1,3 dihydro-isoindol-2-yl)-piperidene-2,6-dione"}}}
{"smiles": "Nc1cccc2c1C(=O)N(C1CCC(=O)NC1=O)C2=O", "note": "(centres unmarked) [1,3-dioxo-(2,6-dioxopiperidin-3-yl)-4-aminoisoindoline]", "values": [{"measurement": "adiponectin secretion vs cells differentiated in DMSO (FIG. 4)", "setting": "[1]", "result": "lower levels of adiponectin secretion"}, {"measurement": "cell viability (XTT, FIG. 6)", "setting": "MSCs [2]", "result": "neither 1-oxo-(2,6-dioxopiperidin-3-yl)-4-aminoisoindoline nor 1,3-dioxo-(2,6-dioxopiperidin-3-yl)-4-aminoisoindoline caused significant change"}, {"measurement": "level of leptin mRNAs (northern blot, FIG. 5)", "setting": "leptin mRNA", "result": "dose-dependently increase"}, {"measurement": "cell proliferation (BrdU incorporation, FIG. 6)", "setting": "MSCs [3]", "result": "neither 1-oxo-(2,6-dioxopiperidin-3-yl)-4-aminoisoindoline nor 1,3-dioxo-(2,6-dioxopiperidin-3-yl)-4-aminoisoindoline caused significant change"}, {"measurement": "level of adiponectin mRNAs (northern blot, FIG. 5)", "setting": "adiponectin mRNA", "result": "dose-dependent decrease"}, {"measurement": "triglyceride accumulation quantified by Oil Red O staining (FIG. 2B)", "setting": "[4]", "result": "no significant difference"}, {"measurement": "leptin secretion vs cells differentiated in DMSO (FIG. 3B)", "setting": "[5]; adipocytes differentiated in presence of 0. 1, 1, 2.5, or 10 μM", "result": "a similar result was observed"}, {"measurement": "concentration giving maximum of dose dependent leptin secretion response", "setting": "[5]", "result": 10, "unit": "µM"}, {"measurement": "dexamethasone induced leptin secretion (FIG. 3C)", "setting": "[5]", "result": "enhanced dexamethasone induced leptin secretion"}]}
{"smiles": "Nc1cccc2c1CN(C1CCC(=O)NC1=O)C2=O", "note": "(centres unmarked) [Form C, 3-(4-amino-1-oxo-1,3 dihydro-isoindol-2-yl)-piperidene-2,6-dione]", "values": [{"measurement": "interconversion of polymorphic form", "setting": "[6]", "result": "can convert to Form B at higher relative humidities"}, {"measurement": "hygroscopicity of polymorphic form", "setting": "[6]", "result": "not hygroscopic below about 85% RH"}]}
{"smiles": "Nc1cccc2c1CN(C1CCC(=O)NC1=O)C2=O", "note": "(centres unmarked) [Form D, 3-(4-amino-1-oxo-1,3 dihydro-isoindol-2-yl)-piperidene-2,6-dione]", "values": [{"measurement": "interconversion of polymorphic form", "setting": "[6]", "result": "will typically convert to Form B when stressed at higher relative humidities"}, {"measurement": "hygroscopicity of polymorphic form", "setting": "[6]", "result": "either weakly or not hygroscopic"}]}
{"smiles": "Nc1cccc2c1CN(C1CCC(=O)NC1=O)C2=O", "note": "(centres unmarked) [1-oxo-(2,6-dioxopiperidin-3-yl)-4-aminoisoindoline]", "values": [{"measurement": "adiponectin secretion vs cells differentiated in DMSO (FIG. 4)", "setting": "[1]", "result": "lower levels of adiponectin secretion"}, {"measurement": "cell viability (XTT, FIG. 6)", "setting": "MSCs [2]", "result": "neither 1-oxo-(2,6-dioxopiperidin-3-yl)-4-aminoisoindoline nor 1,3-dioxo-(2,6-dioxopiperidin-3-yl)-4-aminoisoindoline caused significant change"}, {"measurement": "level of leptin mRNAs (northern blot, FIG. 5)", "setting": "leptin mRNA", "result": "dose-dependently increase"}, {"measurement": "cell proliferation (BrdU incorporation, FIG. 6)", "setting": "MSCs [3]", "result": "neither 1-oxo-(2,6-dioxopiperidin-3-yl)-4-aminoisoindoline nor 1,3-dioxo-(2,6-dioxopiperidin-3-yl)-4-aminoisoindoline caused significant change"}, {"measurement": "level of adiponectin mRNAs (northern blot, FIG. 5)", "setting": "adiponectin mRNA", "result": "dose-dependent decrease"}, {"measurement": "triglyceride accumulation quantified by Oil Red O staining (FIG. 2B)", "setting": "[4]", "result": "no significant difference"}, {"measurement": "ability of the cells to accumulate triglyceride (microscopy, FIG. 2A)", "setting": "[4]; cells differentiated with compound vs DMSO, lipid vacuoles observed", "result": "does not alter the ability of the cells to accumulate triglyceride"}, {"measurement": "leptin secretion vs cells differentiated in DMSO (FIG. 3A)", "setting": "[5]; adipocytes differentiated in presence of 2.5, 10, 25, or 50 μM", "result": "secreted higher levels of leptin"}, {"measurement": "concentration giving maximum of dose dependent leptin secretion response", "setting": "[5]", "result": 25, "unit": "µM"}, {"measurement": "dexamethasone induced leptin secretion (FIG. 3C)", "setting": "[5]", "result": "enhanced dexamethasone induced leptin secretion"}]}
{"smiles": "Nc1cccc2c1CN(C1CCC(=O)NC1=O)C2=O", "note": "(centres unmarked) [Form A, 3-(4-amino-1-oxo-1,3 dihydro-isoindol-2-yl)-piperidene-2,6-dione]", "values": [{"measurement": "relative stability of polymorphic form", "setting": "[6]; Form A: among anhydrous polymorphs, Form E: in aqueous solvent systems", "result": "most thermodynamically stable anhydrous polymorph"}, {"measurement": "hygroscopicity of polymorphic form", "setting": "[6]", "result": "weakly or not hygroscopic"}]}
{"smiles": "Nc1cccc2c1CN(C1CCC(=O)NC1=O)C2=O", "note": "(centres unmarked) [Form B, 3-(4-amino-1-oxo-1,3 dihydro-isoindol-2-yl)-piperidene-2,6-dione]", "values": [{"measurement": "interconversion of polymorphic form", "setting": "[6]", "result": "converts to Form E in aqueous solvent systems"}]}
